Assay results as given in the supplement of paper PMC10307832.

Columns and labels:
Experiment in all cases: relative viability (nuclei count vs DMSO), 5 days (fraction); higher = more cells survive
Bosutinib + Trametinib = compound: COc1cc(Nc2c(C#N)cnc3cc(OCCCN4CCN(C)CC4)c(OC)cc23)c(Cl)cc1Cl [Bosutinib] + CC(=O)Nc1cccc(-n2c(=O)n(C3CC3)c(=O)c3c(Nc4ccc(I)cc4F)n(C)c(=O)c(C)c32)c1 [Trametinib] (partner 0.02 µM)
Outline: (§1)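 One day after seeding in 1536-well plates, lung cancer cell lines were dosed by pin tool. Dosing was either single-drug or a fixed anchor-drug dose plus five library-drug doses (not always all listed) in √10 steps. After 5 days, nuclei were stained in one fix-and-stain step and counted on 4× images, and relative viability is the nuclei count of treated wells over that of vehicle wells, given as the median of duplicate plates.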

Bosutinib + Luminespib = compound: COc1cc(Nc2c(C#N)cnc3cc(OCCCN4CCN(C)CC4)c(OC)cc23)c(Cl)cc1Cl [Bosutinib] + CCNC(=O)c1noc(-c2cc(C(C)C)c(O)cc2O)c1-c1ccc(CN2CCOCC2)cc1 [Luminespib] (partner 0.01 µM)
Outline: as §1

Bosutinib + Palbociclib = compound: COc1cc(Nc2c(C#N)cnc3cc(OCCCN4CCN(C)CC4)c(OC)cc23)c(Cl)cc1Cl [Bosutinib] + CC(=O)c1c(C)c2cnc(Nc3ccc(N4CCNCC4)cn3)nc2n(C2CCCC2)c1=O [Palbociclib] (partner 0.5 µM)
Outline: as §1

Bosutinib + Pictilisib = compound: COc1cc(Nc2c(C#N)cnc3cc(OCCCN4CCN(C)CC4)c(OC)cc23)c(Cl)cc1Cl [Bosutinib] + CS(=O)(=O)N1CCN(Cc2cc3nc(-c4cccc5[nH]ncc45)nc(N4CCOCC4)c3s2)CC1 [Pictilisib] (partner 1 µM)
Outline: as §1

Bosutinib + Lapatinib = compound: COc1cc(Nc2c(C#N)cnc3cc(OCCCN4CCN(C)CC4)c(OC)cc23)c(Cl)cc1Cl [Bosutinib] + CS(=O)(=O)CCNCc1ccc(-c2ccc3ncnc(Nc4ccc(OCc5cccc(F)c5)c(Cl)c4)c3c2)o1 [Lapatinib] (partner 2 µM)
Outline: as §1

| Cell Line | relative viability (Bosutinib + Trametinib; first compound 0.01 µM) | relative viability (Bosutinib + Trametinib; first compound 0.03162 µM) | relative viability (Bosutinib + Trametinib; first compound 0.1 µM) | relative viability (Bosutinib + Trametinib; first compound 1 µM) | relative viability (Bosutinib + Luminespib; first compound 0.01 µM) | relative viability (Bosutinib + Luminespib; first compound 0.03162 µM) | relative viability (Bosutinib + Luminespib; first compound 0.1 µM) | relative viability (Bosutinib + Luminespib; first compound 1 µM) | relative viability (Bosutinib + Palbociclib; first compound 0.01 µM) | relative viability (Bosutinib + Palbociclib; first compound 0.03162 µM) | relative viability (Bosutinib + Palbociclib; first compound 0.1 µM) | relative viability (Bosutinib + Palbociclib; first compound 1 µM) | relative viability (Bosutinib + Pictilisib; first compound 0.01 µM) | relative viability (Bosutinib + Pictilisib; first compound 0.03162 µM) | relative viability (Bosutinib + Pictilisib; first compound 0.1 µM) | relative viability (Bosutinib + Pictilisib; first compound 1 µM) | relative viability (Bosutinib + Lapatinib; first compound 0.01 µM) | relative viability (Bosutinib + Lapatinib; first compound 0.03162 µM) | relative viability (Bosutinib + Lapatinib; first compound 0.1 µM) | relative viability (Bosutinib + Lapatinib; first compound 1 µM) |
| --- | --- | --- | --- | --- | --- | --- | --- | --- | --- | --- | --- | --- | --- | --- | --- | --- | --- | --- | --- | --- |
| NCI-H3122 | 0.203 | 0.273 | 0.205 | 0.256 | 0.0649 | 0.0933 | 0.104 | 0.104 | 0.214 | 0.18 | 0.201 | 0.218 | 0.623 | 0.609 | 0.624 | 0.761 | 0.99 | 1.05 | 1.02 | 0.933 |
| PC-3 [JPC-3] | 0.725 | 0.691 | 0.647 | 0.467 | 0.679 | 0.835 | 0.685 | 0.569 | 0.506 | 0.543 | 0.542 | 0.516 | 0.756 | 0.726 | 0.73 | 0.59 | 0.432 | 0.428 | 0.431 | 0.505 |
| PC-14 | 0.721 | 0.675 | 0.491 | 0.13 | 0.109 | 0.394 | 0.126 | 0.16 | 0.566 | 0.482 | 0.32 | 0.0932 | 0.61 | 0.588 | 0.449 | 0.125 | 0.35 | 0.309 | 0.298 | 0.227 |
| RERF-LC-KJ | 0.733 | 0.809 | 0.902 | 0.826 | 1.22 | 1.21 | 1.18 | 1.15 | 0.956 | 1.06 | 1.06 | 1.08 | 0.544 | 0.581 | 0.576 | 0.459 | 0.836 | 0.832 | 0.878 | 0.905 |
| SK-LU-1 | 0.43 | 0.504 | 0.498 | 0.344 | 0.199 | 0.189 | 0.212 | 0.187 | 0.399 | 0.436 | 0.397 | 0.294 | 0.574 | 0.685 | 0.517 | 0.545 | 0.808 | 0.919 | 1 | 0.586 |
| SK-MES-1 | 0.55 | 0.547 | 0.547 | 0.39 | 0.812 | 0.839 | 0.765 | 0.284 | 0.329 | 0.327 | 0.326 | 0.295 | 0.374 | 0.351 | 0.437 | 0.305 | 0.435 | 0.512 | 0.555 | 0.505 |
| SW 1573 | 0.571 | 0.614 | 0.652 | 0.504 | 0.267 | 0.956 | 0.246 | 0.183 | 0.418 | 0.419 | 0.365 | 0.4 | 0.508 | 0.516 | 0.492 | 0.432 | 1.32 | 1.08 | 1.14 | 0.935 |
| UMC-11 | 0.724 | 0.723 | 0.686 | 0.678 | 0.967 | 1.16 | 1.05 | 0.806 | 0.366 | 0.344 | 0.33 | 0.279 | 0.889 | 0.81 | 0.875 | 0.764 | 1.1 | 1.03 | 1.03 | 0.821 |
